Patent publication US20250275991A1, “ORAL COMPLEMENT FACTOR D INHIBITORS” (BioCryst Pharmaceuticals, Inc, priority 2019, published 2025)

What follows are compounds tested against Factor D (Homo sapiens, UniProt P00746) (assay: Factor D esterolytic assay). Details: substrate Z-Lys-SBzl 1.29 mM, 100 mM HEPES, 500 mM NaCl, pH 7.5, 10% DMSO, tested a minimum of three times.
Format: biochemical
Experimental: The IC50 value of a compound (i.e., the concentration of the compound that inhibits 50% of the enzymatic activity) was calculated according to the procedure reported in U.S. Pat. No. 6,653,340 B1, e.g., column 74 (incorporated by reference).
Specifically, the compounds were dissolved in a stock solution of DMSO at 10.0 or 100 mM. A portion of this stock solution was added to assay buffer in a final volume of 50 μL. Controls included buffer alone and enzyme solutions to which DMSO was added. Substrate was added to the reaction wells immediately or after incubation at room temperature. The reaction rates were measured spectrophotometrically by the generation of product at 405 nm for 600 sec. Background absorbance at 690 nm was measured and subtracted from the absorbance at 405 nm for each well.
The reaction rate for enzyme alone was compared to the rate of enzyme in the presence of inhibitor and the percent inhibition was calculated as shown below: […]
An established esterolytic assay for the measurement of Factor D activity and inhibition of Factor D activity was used (Kam, C. M.; McRae, B. J.; Harper, J. W.; Niemann, M. A.; Volanakis, J. E.; Powers, J. C. Human complement proteins D, C2, and B Active site mapping with peptide thioester substrates. J Biol. Chem. 1987, 262, 3444-3451). For this assay Z-Lys-SBzl, 1.29 mM (Kim, S.; Narayana, S. V. L; Volanakis, J. E. Mutational analysis of the substrate binding site of human complement Factor D. Biochemistry. 1994, 33, 14393-14399.) was used as the substrate for Factor D ([…]). Hydrolysis of this compound by Factor D liberated a free sulfhydryl group which is then reacted with 5,5′-dithiobis(2nitrobenzoic acid) producing an intense yellow color (Habeeb, A. F. S. A. Reaction of protein sulfhydryl groups with Ellman's Reagent. Methods in Enzymol. 1976, 25, 457-464). The assays were performed in 96 well microtiter plates and rates of hydrolysis were monitored at 405 nm on a Biotek Synergy H1 plate reader. Hydrolysis rates were reported as change in mOD/min. The assay was conducted in 100 mM HEPES, 500 mM NaCl, pH 7.5 containing 10% DMSO in a final volume of 50 μL per well.
An IC50, a compound concentration which inhibits 50% of the enzymatic activity, was calculated. Compounds in the examples were tested a minimum of three times.

Factor D, sequence (P00746 26-253): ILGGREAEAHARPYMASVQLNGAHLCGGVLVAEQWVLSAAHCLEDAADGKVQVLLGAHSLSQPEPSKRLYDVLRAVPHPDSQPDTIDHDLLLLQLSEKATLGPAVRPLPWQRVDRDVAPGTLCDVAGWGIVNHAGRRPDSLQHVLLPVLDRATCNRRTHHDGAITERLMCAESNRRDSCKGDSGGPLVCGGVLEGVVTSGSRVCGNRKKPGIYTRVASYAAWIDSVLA

| Compound | IC50 [nM] |
| --- | --- |
| NCc1nccc(-c2cc(COc3ccc(F)cc3CC(=O)O)cc3c(C(F)(F)F)coc23)c1F [Compound 11m, 2-(2-((7-(2-(aminomethyl)-3-fluoropyridin-4-yl)-3-(trifluoromethyl)benzofuran-5-yl)methoxy)-5-fluorophenyl)acetic acid] | < 1000 |
| CCNCc1nccc(-c2cc(COc3ccccc3CC(=O)O)cc3ccoc23)c1F [Compound 37d, 2-(2-((7-(2-((ethylamino)methyl)-3-fluoropyridin-4-yl)benzofuran-5-yl)methoxy)phenyl)acetic acid] | < 1000 |
| CC(C)OC(=O)NCc1ccc(CC(=O)O)c(OCc2cc(-c3cccc(CN)c3)c3occc3c2)c1 [Compound 27c, 2-(2-((7-(3-(aminomethyl)phenyl)benzofuran-5-yl)methoxy)-4-((isopropoxycarbonylamino)methyl)phenyl)acetic acid] | < 1000 |
| CC(=O)c1ccc(CC(=O)O)c(OCc2cc(-c3ccnc(CN)c3F)c3oc(F)cc3c2)c1 [Compound 75d, 2-(4-acetyl-2-((7-(2-(aminomethyl)-3-fluoropyridin-4-yl)-2-fluorobenzofuran-5-yl)methoxy)phenyl)acetic acid] | < 1000 |
| NCc1cccc(-c2cc(COc3ccccc3)cc3ccoc23)c1 [Compound 83b, (3-(5-(phenoxymethyl)benzofuran-7-yl)phenyl)methanamine] | > 10000 |
| NCc1csc(-c2cc(COc3ccccc3CC(=O)O)cc3ccoc23)n1 [Compound 6e, 2-(2-((7-(4-(aminomethyl)thiazol-2-yl)benzofuran-5-yl)methoxy)phenyl)acetic acid] | < 1000 |
| COCc1cc2cc(COc3cc(C(C)=O)ccc3CC(=O)O)cc(-c3cccc(CN)c3)c2o1 [Compound 12j, 2-(4-acetyl-2-((7-(3-(aminomethyl)phenyl)-2-(methoxymethyl)benzofuran-5-yl)methoxy)phenyl)acetic acid] | < 1000 |
| Cc1ccc(CC(=O)O)c(OCc2cc(-c3cccc(CN)c3)c3occ(F)c3c2)c1 [Compound 49d, 2-(2-((7-(3-(aminomethyl)phenyl)-3-fluorobenzofuran-5-yl)methoxy)-4-methylphenyl)acetic acid] | < 1000 |
| CCC(C(=O)O)c1ccccc1OCc1cc(-c2ccnc(CN)c2F)c2occc2c1 (stereo not drawn) [Compound 38c, 2-(2-((7-(2-(aminomethyl)-3-fluoropyridin-4-yl)benzofuran-5-yl)methoxy)phenyl)butanoic acid] | < 1000 |
| CC(N)c1nc(-c2cc(COc3ccccc3CC(=O)O)cc3ccoc23)cs1 (stereo not drawn) [Compound 7e, 2-(2-((7-(2-(1-aminoethyl)thiazol-4-yl)benzofuran-5-yl)methoxy)phenyl)acetic acid] | 1000 to 10000 |

Second part, the compound after the results:

| IC50 [nM] | Compound |
| --- | --- |
| < 1000 | NCc1cccc(-c2cc(COc3ccccc3CC(=O)O)c(OCC3CCCO3)c3ccoc23)c1 (stereo not drawn) [Compound 69g, 2-(2-((7-(3-(aminomethyl)phenyl)-4-((tetrahydrofuran-2-yl)methoxy)benzofuran-5-yl)methoxy)phenyl)acetic acid] |
| < 1000 | CCC(N)c1cccc(-c2cc(COc3ccccc3CC(=O)O)cc3ccoc23)c1 (stereo not drawn) [Compound 2f, 2-(2-((7-(3-(1-aminopropyl)phenyl)benzofuran-5-yl)methoxy)phenyl)acetic acid] |
| 1000 to 10000 | NC(CC(F)(F)F)c1cccc(-c2cc(COc3ccccc3CC(=O)O)cc3ccoc23)c1 (stereo not drawn) [Compound 41e, 2-(2-((7-(3-(1-amino-3,3,3-trifluoropropyl)phenyl)benzofuran-5-yl)methoxy)phenyl)acetic acid] |
| < 1000 | CCNCc1cccc(-c2cc(COc3ccccc3CC(=O)O)cc3ccoc23)c1 [Compound 21c, 2-(2-((7-(3-((ethylamino)methyl)phenyl)benzofuran-5-yl)methoxy)phenyl)acetic acid] |
| 1000 to 10000 | CC(C)C(N)c1cccc(-c2cc(COc3ccccc3CC(=O)O)cc3ccoc23)c1 (stereo not drawn) [Compound 3c, 2-(2-((7-(3-(1-amino-2-methylpropyl)phenyl)benzofuran-5-yl)methoxy)phenyl)acetic acid] |
